Assay results as given in patent publication US20250320204A1 (RIBOSCIENCE LLC, priority 2023, published 2025).

Tests used:
[1] = molecular target: T1, ENPP1 (Homo sapiens, UniProt P22413); test: Measurement of 2′3′-cGAMP hydrolysis by ENPP1 (AMP-Glo); assay type: biochemical; conditions: 2′3′-cGAMP substrate 100 μM, KM 32 μM; Ki from IC50 by Cheng-Prusoff
T1 sequence (P22413 1-925): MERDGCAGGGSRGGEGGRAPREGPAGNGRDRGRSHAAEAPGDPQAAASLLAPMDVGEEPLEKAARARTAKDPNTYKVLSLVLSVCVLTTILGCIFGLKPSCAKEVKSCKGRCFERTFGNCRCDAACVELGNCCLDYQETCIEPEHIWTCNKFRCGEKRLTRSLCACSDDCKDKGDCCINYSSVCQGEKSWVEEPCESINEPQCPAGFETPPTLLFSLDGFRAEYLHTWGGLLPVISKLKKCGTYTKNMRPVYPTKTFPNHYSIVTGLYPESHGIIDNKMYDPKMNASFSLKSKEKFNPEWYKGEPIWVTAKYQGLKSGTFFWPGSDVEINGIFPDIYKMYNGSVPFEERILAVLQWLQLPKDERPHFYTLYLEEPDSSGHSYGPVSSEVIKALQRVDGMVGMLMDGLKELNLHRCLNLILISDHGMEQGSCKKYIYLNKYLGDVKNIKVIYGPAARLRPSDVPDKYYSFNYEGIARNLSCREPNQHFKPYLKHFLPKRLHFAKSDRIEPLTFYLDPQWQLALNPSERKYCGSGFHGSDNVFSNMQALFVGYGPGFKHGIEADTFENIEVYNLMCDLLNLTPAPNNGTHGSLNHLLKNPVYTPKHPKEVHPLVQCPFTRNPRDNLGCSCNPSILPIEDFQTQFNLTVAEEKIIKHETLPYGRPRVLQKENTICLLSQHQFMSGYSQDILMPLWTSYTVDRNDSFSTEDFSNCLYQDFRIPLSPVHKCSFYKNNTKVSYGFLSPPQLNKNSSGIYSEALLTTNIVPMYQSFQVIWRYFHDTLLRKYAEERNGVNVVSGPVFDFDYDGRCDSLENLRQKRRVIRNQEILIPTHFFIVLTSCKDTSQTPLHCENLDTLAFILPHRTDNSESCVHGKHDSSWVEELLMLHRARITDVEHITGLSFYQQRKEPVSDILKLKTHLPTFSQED
Experimental: Measurement of 2′3′-cGAMP hydrolysis by ENPP1
The AMP-Glo assay kit from Promega (catalog number V5012) was used for measurement of 5′-AMP production.
First, an ENPP1 and test compound incubation was set up in assay buffer (50 mM Tris -HCl, pH8.8, 250 mM NaCl, 0.1 mg/ml BSA) with following conditions: ENPP1 concentration: 1.25 nM; test compound concentration ranging from 137 pM to 100 nM. The incubation was carried out at 25° C. for 10 min.
Second, after the 10-minute incubation of ENPP1 and test compound, prepare on a separate plate, 15 μl of the substrate 2′3′-cGAMP at 200 μM in assay buffer. Then, 15 μl of the ENPP1/Compound incubation was transferred to the 200 μM 2′3′-cGAMP solution to initiate the reaction. The 30 μl mixture was incubated for 30 min at 25° C. In all these assays a DMSO control without compound was included which gave the maximum 5′-AMP production (MAX RLU). After 30 min the reaction was stopped by heating at 90° C. for 3 min.
Third, the Promega AMP-Glo kit was used to detect 5′-AMP production as a measurement of ENPP1 enzyme activity. Briefly, 10 μl of the above mentioned 30 μl total reaction per sample was transferred into 384 well white solid assay plate for measurement of 5′-AMP production. For each well, 10 μl of AMP-Glo Reagent I was added, mixed well, and incubated for 1 hour at 25° C. At this time AMP detection solution was prepared and 20 μl was added per well, and the resulting solution was incubated for 1 hr at 25° C. Duplicates were run for each inhibitor concentration. Luminescence signal (relative luminescence units, RLU) was recorded using a PerkinElmer 2300 Enspire multimode plate reader.
The % inhibition was calculated using the following equation: % inhibition=(MAX RLU-sample RLU)/MAX RLU X 100%.
IC50 values of compounds were determined by loading compound concentration data and percent inhibition values into GraphPad Prism (GraphPad Prism version 7.0 for
Windows, GraphPad Software, La Jolla California USA, www.graphpad.com) and conducted a Sigmoidal variable slope nonlinear regression fitting.
Ki values for each compound were calculated from the observed IC50 from GraphPad analysis using the Cheng-Prusoff equation: Ki=IC50/(1+ (S)/KM). (S) here is 100μ M and KM is 32 μm.

[2] = molecular target: T1, ENPP1; test: Measurement of pNP-TMP hydrolysis by ENPP1; assay type: biochemical; conditions: pNP-TMP substrate 500 μM, Km 232 μM; Ki from IC50 by Cheng-Prusoff
Experimental: Measurement of pNP-TMP hydrolysis by ENPP1
p-Nitrophenyl thymidine 5′-monophosphate (pNP-TMP) is a synthesized substrate for ENPP1. The ENPP1 enzyme activity assay with pNP-TMP substrate was conducted as follows:
First, in a 60 μl reaction, 7.5 ng purified ENPP1 was mixed with 1.2 μl compounds of Formula (I) (test compound) ranging from 13.7 nM to 10 μM. Incubation of ENPP1 with compounds was set at 25° C. for 10 min. Reactions with DMSO only (with ENPP1 but no compound) gave the fastest reaction (MAX Activity). For each compound dilution, wells with assay buffer (50 mM Tris -HCl, pH8.8, 250 mM NaCl, 0.1 mg/ml BSA) and test compounds but no ENPP1 were included as controls for the subtraction of test compound derived absorbance at 405 nm.
Second, after 10 minutes incubation of ENPP1 and test compound, the assay was initiated by transferring 50 μl of the above mentioned ENPP1/test compound reaction into 50 μl of 1 mM pNP-TMP in assay buffer results in a 100 μl total reaction in non-binding surface clear bottom 96 well plates. Absorbance at 405 nm was recorded immediately in kinetic mode by PerkinElmer 2300 Enspire multimode plate reader.
For each inhibitor, the specific ENPP1 activity was calculated using the following equation: ENPP1 activity (pmol/min/μg)=Adjusted Vmax (OD405 nm/min) X conversion factor (pmol/OD405 nm)/amount of enzyme (μg)
Adjusted Vmax=V0X (Km+(S))/(S). In this assay, Km=232 μM, (S)=500 μM. Adjusted Vmax=1.464 X V0.
V0=(OD405 nm with ENPP1-OD405 nm ENPP1 blank)/minutes. OD405 nm was plotted, with blank subtracted, against time (minutes), the initial linear rate is V0.
The conversion factor (pmol/OD405 nm), was determined by plotting the amount of standard, 4-Nitrophenol (Sigma -Aldrich, Catalog #241326), against absorbance at 405 nm. The slope is the conversion factor. The percent ENPP1 activity for each sample was calculated using the following equation: […]
To determine the IC50 for each compound, compound concentration values and percent enzyme activity values were inserted into GraphPad Prism (GraphPad Prism version 9.0 for Windows, GraphPad Software, La Jolla California USA, www.graphpad.com), and Prism's Transform analysis was used to convert the x-axis values (compound concentration) to logarithms. A sigmoidal variable slope nonlinear regression analysis was performed using the following equation: Y=Bottom+ (Top-Bottom)/(1+10^((Log IC50″X) *HillSlope)).
Ki values for each compound were calculated from the observed IC50 from GraphPad analysis using the Cheng-Prusoff equation: Ki=IC50/(1+(S)/KM). (S) here is 500 μM and KM is determined to be 232 μM.

[3] = system: HGS tumor model; test: Anti-tumor activity in HGS tumor model; assay type: in vivo; conditions: animals treated with 20/kg of compound, day 42 after inoculation
Excerpt: […]

Row | Ki [1] | Ki [2] | SMILES | tumor size [3]
1 | < 1 nM | < 10 nM | N=S(=O)(c1cccc(COc2ccnc3c(OCF)nccc23)c1)C1CC1 (racemic) [Example 41, cyclopropyl(3-(((8-(fluoromethoxy)-1,7-naphthyridin-4-yl)oxy)methyl)phenyl)-(imino)-lambda6-sulfanone] | –
2 | < 1 nM | – | CS(=N)(=O)CC1(O)CCN(c2ccnc3c(OCF)nccc23)CC1 (racemic) [Example 47, ((1-(8-(fluoromethoxy)-1,7-naphthyridin-4-yl)-4-hydroxypiperidin-4-yl)methyl) (imino)(methyl)-lambda6-sulfanone] | –
3 | < 1 nM | – | COc1nccc2c(OCc3cc(F)cc(S(=N)(=O)C4CC4)c3)ccnc12 (racemic) [Example 66, cyclopropyl(3-fluoro-5-(((8-methoxy-1,7-naphthyridin-4-yl)oxy)methyl)-phenyl) (imino)-lambda6-sulfanone] | –
4 | < 1 nM | < 10 nM | CS(=N)(=O)c1cccc(COc2ccnc3c(OCF)nccc23)c1 (racemic) [Example 77, (3-(((8-(fluoromethoxy)-1,7-naphthyridin-4-yl)oxy)methyl)phenyl) (imino)(methyl)-lambda6-sulfanone] | –
5 | < 1 nM | < 10 nM | COc1nccc2c(N3CC4(CC(CS(C)(=N)=O)C4)C3)ncnc12 (single isomer, unassigned) [Example 2a, imino ((2-(8-methoxypyrido[3,4-d]pyrimidin-4-yl)-2-azaspiro[3.3]heptan-6-yl)methyl)(methyl)-lambda6-sulfanone] | –
6 | < 1 nM | < 10 nM | N=[S@@](=O)(c1cccc(COc2ccnc3c(OCF)nccc23)c1)C1CC1 (single isomer, unassigned) [Example 43] | –
7 | < 1 nM | < 10 nM | C[S@](=N)(=O)CC1(O)CCN(c2ccnc3c(OCF)nccc23)CC1 (single isomer, unassigned) [Example 49] | –
8 | < 1 nM | < 10 nM | COc1nccc2c(OCc3cc(F)cc([S@@](=N)(=O)C4CC4)c3)ccnc12 (single isomer, unassigned) [Example 67] | –
9 | < 1 nM | < 10 nM | COc1nccc2c(OCc3cc(F)cc([S@@](C)(=N)=O)c3)ccnc12 (single isomer, unassigned) [Example 71] | –
10 | < 1 nM | < 10 nM | C[S@](=N)(=O)c1cccc(COc2ccnc3c(OCF)nccc23)c1 (single isomer, unassigned) [Example 79] | –
11 | – | – | C=CC(=O)N1CCN(CCCn2c(=O)c(-c3c(Cl)c(OC)cc(OC)c3Cl)cc3cnc(NC)nc32)CC1 [8-(3-(4-acryloylpiperazin-1-yl)propyl)-6-(2,6-dichloro-3,5-dimethoxyphenyl)-2-(methylamino)pyrido (2,3-d)pyrimidin-7 (8H)-one] | 55 mm3
12 | 1 to 5 nM | < 10 nM | CS(=N)(=O)c1cccc(COc2ccnc3cnccc23)c1 (stereo not shown) [Example 9] | –
13 | < 1 nM | < 10 nM | COc1nccc2c(OCc3cccc([S@@](=N)(=O)C4CC4)c3)ccnc12 [Example 17b, (S)-Cyclopropyl(imino)(3-(((8-methoxy-1,7-naphthyridin-4-yl)oxy)methyl)phenyl)-lamba6-sulfanone] | –
14 | < 1 nM | – | COc1nccc2c(N3CCC(O)(CS(C)(=N)=O)CC3)ccnc12 (stereo not shown) [Example 25] | –
15 | < 1 nM | < 10 nM | N=S(=O)(c1cc(F)cc(COc2ccnc3c(OCF)nccc23)c1)C1CC1 (stereo not shown) [Example 69, cyclopropyl(3-fluoro-5-(((8-(fluoromethoxy)-1,7-naphthyridin-4-yl)oxy)-methyl)phenyl) (imino)-lambda6-sulfanone] | –
16 | < 1 nM | – | CS(=N)(=O)c1cc(F)cc(COc2ccnc3c(OCF)nccc23)c1 (stereo not shown) [Example 72, (3-fluoro-5-(((8-(fluoromethoxy)-1,7-naphthyridin-4-yl)oxy)methyl)phenyl)-(imino)(methyl)-lambda6-sulfanone] | –
17 | – | < 10 nM | COc1nccc2c(OCc3cccc([S@@](=N)(=O)C(C)(C)C)c3)ccnc12 [Example 74, (S)-tert-butyl(imino) (3-(((8-methoxy-1,7-naphthyridin-4-yl)oxy)methyl)phenyl)-lambda6-sulfanone] | –
18 | – | < 10 nM | COc1nccc2c(OCc3cccc([S@@](C)(=N)=O)c3)ccnc12 [Example 75, (S)-imino (3-(((8-methoxy-1,7-naphthyridin-4-yl)oxy)methyl)phenyl)(methyl)-lambda6-sulfanone] | –
19 | – | 10 to 100 nM | COc1nccc2c(OCc3cccc([S@](=N)(=O)C(C)(C)C)c3)ccnc12 [Example 76, (R)-tert-butyl(imino) (3-(((8-methoxy-1,7-naphthyridin-4-yl)oxy)methyl)phenyl)-lambda6-sulfanone] | –
20 | – | < 10 nM | COc1nccc2c(OCc3cccc([S@@](=N)(=O)C(C)C)c3)ccnc12 [Example 84, (S)-imino(isopropyl)(3-(((8-methoxy-1,7-naphthyridin-4-yl)oxy)methyl)phenyl)-lambda6-sulfanone] | –
